Test results published in US5602106A, “16-membered macrolide derivatives” (priority 1993, dated 1997).
≈ marks a conversion by molar mass, not a printed value. Read-outs that look alike come from different tables or passages of the source.

How the values were obtained:
[1] = literature; cited from earlier work
S. aureus M126 = test: MIC, agar plate dilution method; assay type: cell-based; details: Staphylococcus aureus, 37° C., 20 hours, SDA with 5% horse blood, read-out: Antimicrobial activity (MIC)
Summary of the method: (§1)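 Minimum inhibitory concentration by agar plate dilution on disk agar with 5% horse blood; 5 μl of roughly 10^6 CFU/ml inoculated, 37° C. for 20 h.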

E. coli NIHJ JC-2 = test: MIC, agar plate dilution method; assay type: cell-based; details: Escherichia coli, NIHJJC2, 20 h, 37° C., SDA with 5% horse blood, read-out: Antimicrobial activity (MIC)
Summary of the method: as §1

S. aureus MS15027 = test: MIC, agar plate dilution method; assay type: cell-based; details: Staphylococcus aureus, MS15027, 20 h, read-out: Antimicrobial activity (MIC), 37° C., 20 hours, SDA with 5% horse blood
Summary of the method: as §1

S. aureus MS15009/pMS99 = test: MIC, agar plate dilution method; assay type: cell-based; details: Staphylococcus aureus, MS15009/PMS99, 20 h, read-out: Antimicrobial activity (MIC)
Summary of the method: as §1

S. aureus MS15026 = test: MIC, agar plate dilution method; assay type: cell-based; details: Staphylococcus aureus, 37° C., 20 hours, SDA with 5% horse blood, read-out: Antimicrobial activity (MIC)
Summary of the method: as §1

S. aureus 209P JC-1 = test: MIC, agar plate dilution method; assay type: cell-based; details: for MIC: Staphylococcus aureus, 209P, 20 h, read-out: Antimicrobial activity (MIC), 37° C., 20 hours, SDA with 5% horse blood
Summary of the method: as §1

H. influenzae Type b = test: MIC, agar plate dilution method; assay type: cell-based; details: for MIC: Haemophilus influenzae, 20 h, read-out: Antimicrobial activity (MIC), 37° C., 20 hours, SDA with 5% horse blood
Summary of the method: as §1

B. catarrhalis W-0400 = test: MIC, agar plate dilution method; assay type: cell-based; details: Moraxella catarrhalis, W0400, 20 h, read-out: Antimicrobial activity (MIC)
Summary of the method: as §1

H. influenzae 9334 = test: MIC, agar plate dilution method; assay type: cell-based
Summary of the method: as §1

S. pneumoniae IP692 = test: MIC, agar plate dilution method; assay type: cell-based; details: for MIC: Streptococcus pneumoniae, IP692, 20 h, read-out: Antimicrobial activity (MIC), 37° C., 20 hours, SDA with 5% horse blood
Summary of the method: as §1

M. luteus ATCC9341 = test: MIC, agar plate dilution method; assay type: cell-based; details: Micrococcus luteus
Summary of the method: as §1

S. aureus MS15009/pMS98 = test: MIC, agar plate dilution method; assay type: cell-based; details: for MIC: Staphylococcus aureus, MS15009/PMS98, 20 h, read-out: Antimicrobial activity (MIC), 37° C., 20 hours, SDA with 5% horse blood
Summary of the method: as §1

E. faecalis W-73 = test: MIC, agar plate dilution method; assay type: cell-based; details: Enterococcus faecalis, W73, 20 h, read-out: Antimicrobial activity (MIC)
Summary of the method: as §1

S. aureus M133 = test: MIC, agar plate dilution method; assay type: cell-based; details: for MIC: Staphylococcus aureus, M133, 20 h, read-out: Antimicrobial activity (MIC), 37° C., 20 hours, SDA with 5% horse blood
Summary of the method: as §1

K. pneumoniae PCI602 = test: MIC, agar plate dilution method; assay type: cell-based; details: Klebsiella pneumoniae, PCI602, 20 h, 37° C., SDA with 5% horse blood, read-out: Antimicrobial activity (MIC)
Summary of the method: as §1

S. pyogenes Cook = test: MIC, agar plate dilution method; assay type: cell-based; details: Streptococcus pyogenes
Summary of the method: as §1

S. epidermidis ATCC14990 = test: MIC, agar plate dilution method; assay type: cell-based; details: Staphylococcus epidermidis, ATCC14990, 20 h, read-out: Antimicrobial activity (MIC), 37° C., 20 hours, SDA with 5% horse blood
Summary of the method: as §1

S. pneumoniae Type 1 = test: MIC, agar plate dilution method; assay type: cell-based; details: for MIC: Streptococcus pneumoniae, TYPE1, 20 h, read-out: Antimicrobial activity (MIC), 37° C., 20 hours, SDA with 5% horse blood
Summary of the method: as §1

[2] = test system: clinically important Gram-positive bacteria; test: Antimicrobial activity / growth inhibition; assay type: cell-based
Experimental: (§2) The effect of the first aspect of the present invention resides in the creation of a novel and useful 16-membered macrolide derivative. Antimicrobial activities of the compounds of the present invention were determined by measuring minimum inhibitory concentration (MIC). Minimum inhibitory concentration was determined by the agar plate dilution method in the following manner.
(§3) Test strains were subjected to seed culture using Sensitivity test broth (STB, Nissui Pharmaceutical) except that the strains belonging to the genus Streptococcus, Branhamella and Haemophilus were cultured on blood agar plate. A 5 μl portion of cell suspension of the test strains having about 10^6 CFU/ml was inoculated into Sensitivity disk agar (SDA, Nissui Pharmaceutical) supplemented with 5% horse blood and incubated at 37° C. for 20 hours. Then, MIC was measured. […] Antimicrobial activities in vitro of the compounds (1) and (2) are shown in Table 1, and those of the compounds (3) and (4) in Table 3.

Streptococcus pneumoniae = test: Antimicrobial activity in vitro; assay type: cell-based; details: compared with MDM and LM-A7
Experimental: as §2, §3

B. catarrhalis W-0500 = test: MIC, agar plate dilution method; assay type: cell-based; details: Moraxella catarrhalis
Summary of the method: as §1

B. catarrhalis W-0506 = test: MIC, agar plate dilution method; assay type: cell-based; details: Moraxella catarrhalis
Summary of the method: as §1

test strains = test: Antimicrobial activity in vitro, test strains overall; assay type: cell-based
Summary of the method: as §1

Branhamella catarrhalis = test: Antimicrobial activity in vitro; assay type: cell-based; details: vs compound (5)
Experimental: as §2, §3

[3] = 37° C., 20 hours, SDA with 5% horse blood
[4] = Haemophilus influenzae, 9334, 20 h, read-out: Antimicrobial activity (MIC), 37° C., 20 hours, SDA with 5% horse blood
[5] = ATCC9341, 37° C., 20 hours, SDA with 5% horse blood, read-out: Antimicrobial activity (MIC)
[6] = 20 h, read-out: Antimicrobial activity (MIC), 37° C., 20 hours, SDA with 5% horse blood

Row | SMILES | metabolism and loss of antimicrobial activity after oral administration [1] | MIC (S. aureus M126) | MIC (E. coli NIHJ JC-2) | MIC (S. aureus MS15027) | MIC (S. aureus MS15009/pMS99) | MIC (S. aureus MS15026) | MIC (S. aureus 209P JC-1) | MIC (H. influenzae Type b) | MIC (H. influenzae 9334; [4]) | MIC (S. pneumoniae IP692) | MIC (M. luteus ATCC9341; [5]) | MIC (S. aureus MS15009/pMS98) | MIC (E. faecalis W-73; [3]) | MIC (E. faecalis W-73) | MIC (S. aureus M133) | MIC (K. pneumoniae PCI602) | MIC (S. pyogenes Cook; [6]) | MIC (S. epidermidis ATCC14990) | MIC (S. pneumoniae Type 1) | other results
1 | CCCC(=O)O[C@H]1[C@H](C)O[C@@H](O[C@H]2[C@H](N(C)C)[C@@H](O)[C@H](O[C@H]3[C@@H](CC=O)C[C@@H](C)[C@@H](O)/C=C/C=C/C[C@@H](C)OC(=O)C[C@@H](O)[C@@H]3OC)O[C@@H]2C)C[C@@]1(C)OC(=O)CC [RKM, rokitamycin, reference compound] | an acyl group of a neutral sugar moiety of the administered drug is cleaved with time and antimicrobial activities of the drug itself therefore is reduced gradually | > 100 µg/mL | > 100 µg/mL | 0.78 µg/mL (≈ 0.942 µM) | > 100 µg/mL | > 100 µg/mL | 0.1 µg/mL (≈ 0.121 µM) | 6.25 µg/mL (≈ 7.55 µM) | 6.25 µg/mL (≈ 7.55 µM) | 0.1 µg/mL (≈ 0.121 µM) | 0.05 µg/mL (≈ 0.0604 µM) | 0.39 µg/mL (≈ 0.471 µM) | 1.56 µg/mL (≈ 1.88 µM) | 0.39 µg/mL (≈ 0.471 µM) | 0.39 µg/mL (≈ 0.471 µM) | > 100 µg/mL | 0.2 µg/mL (≈ 0.242 µM) | 0.78 µg/mL (≈ 0.942 µM) | 0.1 µg/mL (≈ 0.121 µM) | Antimicrobial activity (MIC) (S. aureus 209P JC-1; [3]): 0.20 µg/mL; Antimicrobial activity (MIC) (H. influenzae Type b; [3]): 12.5 µg/mL; MIC (B. catarrhalis W-0400): 0.39 µg/mL (≈ 0.471 µM); MIC (H. influenzae 9334; Haemophilus influenzae, 9334, 37° C., 20 hours, SDA with 5% horse blood, read-out: Antimicrobial activity (MIC)): 1.56 µg/mL (≈ 1.88 µM); Antimicrobial activity (MIC) (S. pneumoniae IP692; [3]): 0.20 µg/mL; Antimicrobial activity (MIC) (S. aureus MS15009/pMS98; [3]): 0.78 µg/mL; Antimicrobial activity (MIC) (S. aureus M133; [3]): 0.78 µg/mL; MIC (S. pyogenes Cook; 37° C., 20 hours, SDA with 5% horse blood, read-out: Antimicrobial activity (MIC)): 0.05 µg/mL (≈ 0.0604 µM); Antimicrobial activity (MIC) (S. pneumoniae Type 1; [3]): 0.20 µg/mL
2 | CCC(=O)O[C@@H]1CC(=O)O[C@H](C)C/C=C/C=C/[C@H](O)[C@H](C)C[C@H](CC=O)[C@H](O[C@@H]2O[C@H](C)[C@@H](O[C@H]3C[C@@](C)(OC)[C@@H](OC(=O)CC)[C@H](C)O3)[C@H](N(C)C)[C@H]2O)[C@H]1OC [(1), 3"-O-methylmidecamycin A1] | – | > 100 µg/mL | – | 0.39 µg/mL (≈ 0.471 µM) | > 100 µg/mL | > 100 µg/mL | 0.2 µg/mL (≈ 0.242 µM) | 12.5 µg/mL (≈ 15.1 µM) | – | 0.1 µg/mL (≈ 0.121 µM) | 0.05 µg/mL (≈ 0.0604 µM) | 0.2 µg/mL (≈ 0.242 µM) | 1.56 µg/mL (≈ 1.88 µM) | – | 0.39 µg/mL (≈ 0.471 µM) | > 100 µg/mL | – | 0.78 µg/mL (≈ 0.942 µM) | 0.1 µg/mL (≈ 0.121 µM) | antimicrobial activities (in words) [2]: strong antimicrobial activities; antimicrobial activity against Streptococcus pneumoniae (Streptococcus pneumoniae): considerably improved antimicrobial activity; MIC (B. catarrhalis W-0500; W0500, 20 h, read-out: Antimicrobial activity (MIC), 37° C., 20 hours, SDA with 5% horse blood): 0.78 µg/mL (≈ 0.942 µM); MIC (B. catarrhalis W-0506; W0506, 20 h, read-out: Antimicrobial activity (MIC), 37° C., 20 hours, SDA with 5% horse blood): 0.78 µg/mL (≈ 0.942 µM); antimicrobial activities in vitro compared with corresponding compounds having free 3"-hydroxyl (MDM, LM-A7) (test strains; against most of test strains): twice as high
3 | CCC(=O)O[C@@H]1CC(=O)O[C@H](C)C/C=C/C=C/[C@H](OC(C)=O)[C@H](C)C[C@H](CC=O)[C@H](O[C@@H]2O[C@H](C)[C@@H](O[C@H]3C[C@@](C)(OC(C)=O)[C@@H](OC(=O)CC)[C@H](C)O3)[C@H](N(C)C)[C@H]2O)[C@H]1OC [MOM, miokamycin, reference compound] | an acyl group of a neutral sugar moiety of the administered drug is cleaved with time and antimicrobial activities of the drug itself therefore is reduced gradually | > 100 µg/mL | > 100 µg/mL | 0.78 µg/mL (≈ 0.869 µM) | > 100 µg/mL | > 100 µg/mL | 0.39 µg/mL (≈ 0.434 µM) | 50 µg/mL (≈ 55.7 µM) | 6.25 µg/mL (≈ 6.96 µM) | 0.2 µg/mL (≈ 0.223 µM) | – | 0.78 µg/mL (≈ 0.869 µM) | – | 6.25 µg/mL (≈ 6.96 µM) | 0.78 µg/mL (≈ 0.869 µM) | > 100 µg/mL | 0.2 µg/mL (≈ 0.223 µM) | 0.78 µg/mL (≈ 0.869 µM) | 0.2 µg/mL (≈ 0.223 µM) | MIC (B. catarrhalis W-0500; W0500, 37° C., 20 hours, SDA with 5% horse blood, read-out: Antimicrobial activity (MIC)): 1.56 µg/mL (≈ 1.74 µM); MIC (B. catarrhalis W-0506; W0506, 37° C., 20 hours, SDA with 5% horse blood, read-out: Antimicrobial activity (MIC)): 1.56 µg/mL (≈ 1.74 µM); MIC (M. luteus ATCC9341; ATCC9341, 20 h, read-out: Antimicrobial activity (MIC), 37° C., 20 hours, SDA with 5% horse blood): 0.1 µg/mL (≈ 0.111 µM)
4 | CO[C@@H]1[C@@H](O[C@@H]2O[C@H](C)[C@@H](O[C@H]3C[C@@](C)(OC)[C@@H](OC(=O)CC(C)C)[C@H](C)O3)[C@H](N(C)C)[C@H]2O)[C@@H](CC=O)C[C@@H](C)[C@@H](OC(C)=O)/C=C/C=C/C[C@@H](C)OC(=O)C[C@H]1OC(C)=O [(11), 9-O-acetyl-3"-O-methyljosamycin] | – | – | – | – | – | – | – | – | – | – | – | – | – | – | – | – | – | – | – | antimicrobial activity against Branhamella catarrhalis compared with compound (5) (Branhamella catarrhalis): slightly superior to that of the compound (5); antimicrobial activities in vitro compared with miokamycin (test strains; vs miokamycin (MOM)): comparable to or higher
